Assay results from the supplement of paper PMC10307832.

Experiments:
Assay in all cases: relative viability (nuclei count vs DMSO), 5 days (fraction); higher = more cells survive
Cabozantinib + OSI-027 = compound: COc1cc2nccc(Oc3ccc(NC(=O)C4(C(=O)Nc5ccc(F)cc5)CC4)cc3)c2cc1OC [Cabozantinib] + COc1cccc2cc(-c3nc([C@H]4CC[C@H](C(=O)O)CC4)n4ncnc(N)c34)[nH]c12 [OSI-027] (partner 0.5 µM)
Procedure, shortened: (§1)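 Relative viability was taken as the ratio of nuclei in treated wells to nuclei in vehicle wells. Lung cancer cell lines in 1536-well plates received compounds by pin tool one day after seeding, either one drug alone or a fixed anchor-drug dose plus five library-drug doses (not always all listed) in √10 steps. Nuclei were counted on 4× images after 5 days of treatment, and values are medians of duplicate plates.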

Zosuquidar + Pictilisib = compound: O[C@@H](COc1cccc2ncccc12)CN1CCN([C@@H]2c3ccccc3[C@@H]3[C@H](c4ccccc42)C3(F)F)CC1 [Zosuquidar] + CS(=O)(=O)N1CCN(Cc2cc3nc(-c4cccc5[nH]ncc45)nc(N4CCOCC4)c3s2)CC1 [Pictilisib] (partner 1 µM)
Procedure, shortened: as §1

Zosuquidar + Vorinostat = compound: O[C@@H](COc1cccc2ncccc12)CN1CCN([C@@H]2c3ccccc3[C@@H]3[C@H](c4ccccc42)C3(F)F)CC1 [Zosuquidar] + O=C(CCCCCCC(=O)Nc1ccccc1)NO [Vorinostat] (partner 1 µM)
Procedure, shortened: as §1

Kobe2602 + Tozasertib = compound: C1=CC(=CC=C1NC(=S)NNC2=C(C=C(C=C2[N+](=O)[O-])C(F)(F)F)[N+](=O)[O-])F [Kobe2602] + Cc1cc(Nc2cc(N3CCN(C)CC3)nc(Sc3ccc(NC(=O)C4CC4)cc3)n2)n[nH]1 [Tozasertib] (partner 0.1 µM)
Procedure, shortened: as §1

NCI-H1993
relative viability (Cabozantinib + OSI-027; first compound 0.02 µM): 0.511
relative viability (Cabozantinib + OSI-027; first compound 0.06325 µM): 0.528
relative viability (Cabozantinib + OSI-027; first compound 0.2 µM): 0.569
relative viability (Cabozantinib + OSI-027; first compound 0.6325 µM): 0.519
relative viability (Cabozantinib + OSI-027; first compound 2 µM): 0.543
relative viability (Zosuquidar + Pictilisib; first compound 0.01 µM): 0.766
relative viability (Zosuquidar + Pictilisib; first compound 0.03162 µM): 0.913
relative viability (Zosuquidar + Pictilisib; first compound 0.1 µM): 0.804
relative viability (Zosuquidar + Pictilisib; first compound 0.3162 µM): 0.875
relative viability (Zosuquidar + Pictilisib; first compound 1 µM): 0.644
relative viability (Zosuquidar + Vorinostat; first compound 0.01 µM): 0.958
relative viability (Zosuquidar + Vorinostat; first compound 0.03162 µM): 0.603
relative viability (Zosuquidar + Vorinostat; first compound 0.3162 µM): 0.835
relative viability (Zosuquidar + Vorinostat; first compound 1 µM): 0.885
relative viability (Kobe2602 + Tozasertib; first compound 0.2 µM): 0.515
relative viability (Kobe2602 + Tozasertib; first compound 0.6325 µM): 0.549
relative viability (Kobe2602 + Tozasertib; first compound 2 µM): 0.573
relative viability (Kobe2602 + Tozasertib; first compound 6.325 µM): 0.53
relative viability (Kobe2602 + Tozasertib; first compound 20 µM): 0.56

NCI-H2009
relative viability (Cabozantinib + OSI-027; first compound 0.02 µM): 0.642
relative viability (Cabozantinib + OSI-027; first compound 0.06325 µM): 0.724
relative viability (Cabozantinib + OSI-027; first compound 0.2 µM): 0.695
relative viability (Cabozantinib + OSI-027; first compound 0.6325 µM): 0.674
relative viability (Cabozantinib + OSI-027; first compound 2 µM): 0.496
relative viability (Zosuquidar + Pictilisib; first compound 0.01 µM): 0.837
relative viability (Zosuquidar + Pictilisib; first compound 0.03162 µM): 0.88
relative viability (Zosuquidar + Pictilisib; first compound 0.1 µM): 0.677
relative viability (Zosuquidar + Pictilisib; first compound 0.3162 µM): 1.02
relative viability (Zosuquidar + Pictilisib; first compound 1 µM): 0.822
relative viability (Zosuquidar + Vorinostat; first compound 0.01 µM): 0.688
relative viability (Zosuquidar + Vorinostat; first compound 0.03162 µM): 0.658
relative viability (Zosuquidar + Vorinostat; first compound 0.1 µM): 0.654
relative viability (Zosuquidar + Vorinostat; first compound 0.3162 µM): 0.773
relative viability (Zosuquidar + Vorinostat; first compound 1 µM): 0.664
relative viability (Kobe2602 + Tozasertib; first compound 0.2 µM): 0.713
relative viability (Kobe2602 + Tozasertib; first compound 0.6325 µM): 0.801
relative viability (Kobe2602 + Tozasertib; first compound 2 µM): 0.619
relative viability (Kobe2602 + Tozasertib; first compound 6.325 µM): 0.715
relative viability (Kobe2602 + Tozasertib; first compound 20 µM): 0.7

NCI-H2023
relative viability (Cabozantinib + OSI-027; first compound 0.02 µM): 0.308
relative viability (Cabozantinib + OSI-027; first compound 0.06325 µM): 0.39
relative viability (Cabozantinib + OSI-027; first compound 0.2 µM): 0.322
relative viability (Cabozantinib + OSI-027; first compound 0.6325 µM): 0.327
relative viability (Cabozantinib + OSI-027; first compound 2 µM): 0.235
relative viability (Zosuquidar + Pictilisib; first compound 0.01 µM): 0.235
relative viability (Zosuquidar + Pictilisib; first compound 0.03162 µM): 0.235
relative viability (Zosuquidar + Pictilisib; first compound 0.1 µM): 0.171
relative viability (Zosuquidar + Pictilisib; first compound 0.3162 µM): 0.324
relative viability (Zosuquidar + Pictilisib; first compound 1 µM): 0.271
relative viability (Zosuquidar + Vorinostat; first compound 0.01 µM): 0.529
relative viability (Zosuquidar + Vorinostat; first compound 0.03162 µM): 0.837
relative viability (Zosuquidar + Vorinostat; first compound 0.1 µM): 0.596
relative viability (Zosuquidar + Vorinostat; first compound 0.3162 µM): 0.732
relative viability (Zosuquidar + Vorinostat; first compound 1 µM): 0.541
relative viability (Kobe2602 + Tozasertib; first compound 0.2 µM): 0.253
relative viability (Kobe2602 + Tozasertib; first compound 0.6325 µM): 0.326
relative viability (Kobe2602 + Tozasertib; first compound 2 µM): 0.244
relative viability (Kobe2602 + Tozasertib; first compound 6.325 µM): 0.175
relative viability (Kobe2602 + Tozasertib; first compound 20 µM): 0.157

NCI-H2085
relative viability (Cabozantinib + OSI-027; first compound 0.02 µM): 0.817
relative viability (Cabozantinib + OSI-027; first compound 0.06325 µM): 0.756
relative viability (Cabozantinib + OSI-027; first compound 0.2 µM): 0.661
relative viability (Cabozantinib + OSI-027; first compound 0.6325 µM): 0.66
relative viability (Cabozantinib + OSI-027; first compound 2 µM): 0.642
relative viability (Zosuquidar + Pictilisib; first compound 0.01 µM): 0.446
relative viability (Zosuquidar + Pictilisib; first compound 0.03162 µM): 0.543
relative viability (Zosuquidar + Pictilisib; first compound 0.1 µM): 0.441
relative viability (Zosuquidar + Pictilisib; first compound 0.3162 µM): 0.474
relative viability (Zosuquidar + Pictilisib; first compound 1 µM): 0.478
relative viability (Zosuquidar + Vorinostat; first compound 0.01 µM): 0.807
relative viability (Zosuquidar + Vorinostat; first compound 0.03162 µM): 0.753
relative viability (Zosuquidar + Vorinostat; first compound 0.3162 µM): 0.907
relative viability (Zosuquidar + Vorinostat; first compound 1 µM): 0.767
relative viability (Kobe2602 + Tozasertib; first compound 0.2 µM): 0.736
relative viability (Kobe2602 + Tozasertib; first compound 0.6325 µM): 0.772
relative viability (Kobe2602 + Tozasertib; first compound 2 µM): 0.775
relative viability (Kobe2602 + Tozasertib; first compound 6.325 µM): 0.567
relative viability (Kobe2602 + Tozasertib; first compound 20 µM): 0.751

NCI-H2087
relative viability (Cabozantinib + OSI-027; first compound 0.02 µM): 0.364
relative viability (Cabozantinib + OSI-027; first compound 0.06325 µM): 0.549
relative viability (Cabozantinib + OSI-027; first compound 0.2 µM): 0.637
relative viability (Cabozantinib + OSI-027; first compound 0.6325 µM): 0.562
relative viability (Cabozantinib + OSI-027; first compound 2 µM): 0.633
relative viability (Zosuquidar + Pictilisib; first compound 0.01 µM): 0.894
relative viability (Zosuquidar + Pictilisib; first compound 0.03162 µM): 0.844
relative viability (Zosuquidar + Pictilisib; first compound 0.1 µM): 0.791
relative viability (Zosuquidar + Pictilisib; first compound 0.3162 µM): 1
relative viability (Zosuquidar + Pictilisib; first compound 1 µM): 0.853
relative viability (Zosuquidar + Vorinostat; first compound 0.01 µM): 0.666
relative viability (Zosuquidar + Vorinostat; first compound 0.03162 µM): 0.707
relative viability (Zosuquidar + Vorinostat; first compound 0.1 µM): 0.739
relative viability (Zosuquidar + Vorinostat; first compound 0.3162 µM): 0.667
relative viability (Zosuquidar + Vorinostat; first compound 1 µM): 0.77
relative viability (Kobe2602 + Tozasertib; first compound 0.2 µM): 0.282
relative viability (Kobe2602 + Tozasertib; first compound 0.6325 µM): 0.247
relative viability (Kobe2602 + Tozasertib; first compound 2 µM): 0.251
relative viability (Kobe2602 + Tozasertib; first compound 6.325 µM): 0.243
relative viability (Kobe2602 + Tozasertib; first compound 20 µM): 0.246

NCI-H2126
relative viability (Cabozantinib + OSI-027; first compound 0.06325 µM): 0.798
relative viability (Cabozantinib + OSI-027; first compound 0.2 µM): 0.706
relative viability (Cabozantinib + OSI-027; first compound 0.6325 µM): 0.71
relative viability (Cabozantinib + OSI-027; first compound 2 µM): 0.884
relative viability (Zosuquidar + Pictilisib; first compound 0.01 µM): 0.479
relative viability (Zosuquidar + Pictilisib; first compound 0.03162 µM): 0.505
relative viability (Zosuquidar + Pictilisib; first compound 0.1 µM): 0.404
relative viability (Zosuquidar + Pictilisib; first compound 0.3162 µM): 0.494
relative viability (Zosuquidar + Pictilisib; first compound 1 µM): 0.539
relative viability (Zosuquidar + Vorinostat; first compound 0.01 µM): 0.768
relative viability (Zosuquidar + Vorinostat; first compound 0.03162 µM): 0.862
relative viability (Zosuquidar + Vorinostat; first compound 0.1 µM): 0.478
relative viability (Zosuquidar + Vorinostat; first compound 0.3162 µM): 0.757
relative viability (Zosuquidar + Vorinostat; first compound 1 µM): 0.891
relative viability (Kobe2602 + Tozasertib; first compound 0.2 µM): 0.856
relative viability (Kobe2602 + Tozasertib; first compound 0.6325 µM): 0.821
relative viability (Kobe2602 + Tozasertib; first compound 2 µM): 0.812
relative viability (Kobe2602 + Tozasertib; first compound 6.325 µM): 0.733
relative viability (Kobe2602 + Tozasertib; first compound 20 µM): 0.591

NCI-H2170
relative viability (Cabozantinib + OSI-027; first compound 0.02 µM): 0.724
relative viability (Cabozantinib + OSI-027; first compound 0.06325 µM): 0.752
relative viability (Cabozantinib + OSI-027; first compound 0.2 µM): 0.608
relative viability (Cabozantinib + OSI-027; first compound 0.6325 µM): 0.732
relative viability (Cabozantinib + OSI-027; first compound 2 µM): 0.731
relative viability (Zosuquidar + Pictilisib; first compound 0.01 µM): 0.295
relative viability (Zosuquidar + Pictilisib; first compound 0.03162 µM): 0.266
relative viability (Zosuquidar + Pictilisib; first compound 0.1 µM): 0.312
relative viability (Zosuquidar + Pictilisib; first compound 0.3162 µM): 0.345
relative viability (Zosuquidar + Pictilisib; first compound 1 µM): 0.281
relative viability (Zosuquidar + Vorinostat; first compound 0.01 µM): 0.828
relative viability (Zosuquidar + Vorinostat; first compound 0.03162 µM): 0.784
relative viability (Zosuquidar + Vorinostat; first compound 0.1 µM): 0.763
relative viability (Zosuquidar + Vorinostat; first compound 0.3162 µM): 0.844
relative viability (Zosuquidar + Vorinostat; first compound 1 µM): 0.826
relative viability (Kobe2602 + Tozasertib; first compound 0.2 µM): 0.65
relative viability (Kobe2602 + Tozasertib; first compound 0.6325 µM): 0.729
relative viability (Kobe2602 + Tozasertib; first compound 2 µM): 0.721
relative viability (Kobe2602 + Tozasertib; first compound 6.325 µM): 0.78
relative viability (Kobe2602 + Tozasertib; first compound 20 µM): 0.694

NCI-H2228
relative viability (Cabozantinib + OSI-027; first compound 0.02 µM): 0.495
relative viability (Cabozantinib + OSI-027; first compound 0.06325 µM): 0.871
relative viability (Cabozantinib + OSI-027; first compound 0.2 µM): 0.576
relative viability (Cabozantinib + OSI-027; first compound 0.6325 µM): 0.449
relative viability (Cabozantinib + OSI-027; first compound 2 µM): 0.508
relative viability (Zosuquidar + Pictilisib; first compound 0.01 µM): 0.296
relative viability (Zosuquidar + Pictilisib; first compound 0.03162 µM): 0.437
relative viability (Zosuquidar + Pictilisib; first compound 0.1 µM): 0.633
relative viability (Zosuquidar + Pictilisib; first compound 0.3162 µM): 0.459
relative viability (Zosuquidar + Pictilisib; first compound 1 µM): 0.26
relative viability (Zosuquidar + Vorinostat; first compound 0.01 µM): 0.972
relative viability (Zosuquidar + Vorinostat; first compound 0.03162 µM): 0.61
relative viability (Zosuquidar + Vorinostat; first compound 0.1 µM): 0.935
relative viability (Zosuquidar + Vorinostat; first compound 0.3162 µM): 0.895
relative viability (Zosuquidar + Vorinostat; first compound 1 µM): 0.869
relative viability (Kobe2602 + Tozasertib; first compound 0.2 µM): 0.19
relative viability (Kobe2602 + Tozasertib; first compound 0.6325 µM): 0.239
relative viability (Kobe2602 + Tozasertib; first compound 2 µM): 0.246
relative viability (Kobe2602 + Tozasertib; first compound 6.325 µM): 0.234
relative viability (Kobe2602 + Tozasertib; first compound 20 µM): 0.219
